The test system of the assay is blood glucose. The assay is described as follows: Test for hypoglycemic activity in fasted female rats (oral). In kind it is in vivo. The settings on record: for change in vivo at 1 mg/kg / change in vivo at 0.5 mg/kg: Rattus norvegicus, po, read-out: Change in glucose content compared with control. On the procedure: Blood samples were taken immediately before the administration of the test compound and 1, 2, 3 and 4 hours afterwards, in each case from the retroorbital Venous plexus. 50 μl of each sample were deproteinated with 0.5 ml of 0.33 N perchloric acid and centrifuged. The glucose in the supernatant fluid was measured using the hexokinase method with the aid of an analytical photometer. The statistical evaluation was made using the t-test according to Student with p=0.05 as the limit of significance.

Each structure is given as a SMILES string. Like-named read-outs stand apart in the source and are kept apart here.

Take `COc1cc(CC(=O)NC(C)c2ccccc2N2CCCCC2)ccc1C(=O)O` (centres unmarked) [Compound A, 2-methoxy-4-[N-{1-(2-piperidino-phenyl)-1-ethyl}-aminocarbonylmethyl]-benzoic acid]: the change in vivo at 1 mg/kg was -37% (1 mg/kg, 1 h); -46% (1 mg/kg, 2 h); -23% (1 mg/kg, 3 h); -14% (1 mg/kg, 4 h).

Take `CCCC(NC(=O)Cc1ccc(C(=O)O)c(OCC)c1)c1ccccc1N1CCCCCC1` (centres unmarked) [H, 2-ethoxy-4-[N-{1-(2-hexamethyleneimino-phenyl)-1-butyl}-aminocarbonylmethyl]-benzoic acid]: the “Change in glucose content compared with control” value (from here on “Change in glucose content”) (0.5 mg/kg, 4 h) is “n.s”. Further, the change in vivo at 0.5 mg/kg was -42% (0.5 mg/kg, 1 h); -34% (0.5 mg/kg, 2 h); -18% (0.5 mg/kg, 3 h).

Consider `CCOc1cc(CC(=O)NC(c2ccccc2)c2ccccc2N2CCCCC2)ccc1CC#N` (stereo not drawn) [P, [2-ethoxy-4-[N-(α-phenyl-2-piperidino-benzyl)-aminocarbonylmethyl]-phenyl]acetonitrile], for which the change in vivo at 1 mg/kg is -12% (1 mg/kg, 1 h); -10% (1 mg/kg, 2 h); -14% (1 mg/kg, 3 h); -14% (1 mg/kg, 4 h).

For `CCOc1cc(CC(=O)NC(C(=O)OC(C)C)c2ccccc2N2CCCCC2)ccc1C(=O)O` (stereo not drawn) [T, 2-ethoxy-4-[N-(α-isopropoxycarbonyl-2-piperidino-benzyl)-aminocarbonylmethyl]benzoic acid], the “Change in glucose content” value (1 mg/kg, 4 h) was “n.s”. Also, the change in vivo at 1 mg/kg is -36% (1 mg/kg, 1 h); -21% (1 mg/kg, 2 h); -18% (1 mg/kg, 3 h).

Turning to `CCCC(NC(=O)Cc1ccc(CC#N)c(OCC)c1)c1ccccc1N1CCCCC1` (centres unmarked) [O, [2-ethoxy-4-[N-(1-(2-piperidino-phenyl)-1-butyl)-aminocarbonylmethyl]-phenyl]-acetonitrile], the change in vivo at 1 mg/kg was -29% (1 mg/kg, 1 h); -37% (1 mg/kg, 2 h); -35% (1 mg/kg, 3 h); -34% (1 mg/kg, 4 h).

Take `CCOc1cc(CC(=O)NC(C)c2ccccc2N2CCCCC2)ccc1C(=O)O` (centres unmarked) [F, 2-ethoxy-4-[N-{1-(2-piperidino-phenyl)-1-ethyl}-aminocarbonylmethyl]-benzoic acid]: the change in vivo at 1 mg/kg is -44% (1 mg/kg, 1 h); -44% (1 mg/kg, 2 h); -40% (1 mg/kg, 3 h); -30% (1 mg/kg, 4 h).

On to `CCCC(NC(=O)Cc1ccc(C(=O)O)c(OC)c1)c1ccccc1N1CCCCC1` (centres unmarked) [I, 2-methoxy-4-[N-{1-(2-piperidino-phenyl)-1-butyl}-aminocarbonylmethyl]-benzoic acid], for which the change in vivo at 0.5 mg/kg was -42% (0.5 mg/kg, 1 h); -39% (0.5 mg/kg, 2 h); -37% (0.5 mg/kg, 3 h); -30% (0.5 mg/kg, 4 h).

As to `CCOc1cc(CC(=O)NC(CC2CCCCC2)c2ccccc2N2CCCCC2)ccc1C(=O)O` (stereo not drawn) [Q, 2-ethoxy-4-[N-(α-cyclohexylmethyl-2-piperidino-benzyl)-aminocarbonyl-methyl]-benzoic acid], the change in vivo at 0.5 mg/kg reads like this: (0.5 mg/kg, 1 h) -22%; (0.5 mg/kg, 2 h) -47%; (0.5 mg/kg, 3 h) -45%; (0.5 mg/kg, 4 h) -45%.

As to `C=C(C)CC(NC(=O)Cc1ccc(C(=O)O)c(OCC)c1)c1ccccc1N1CCCCC1` (centres unmarked) [X, 2-ethoxy-4-[N-(1-(2-piperidino-phenyl)-3-methyl-3-buten-1-yl)-aminocarbonylmethyl]benzoic acid], the change in vivo at 0.5 mg/kg reads like this: (0.5 mg/kg, 1 h) -44%; (0.5 mg/kg, 2 h) -41%; (0.5 mg/kg, 3 h) -31%; (0.5 mg/kg, 4 h) -28%.

Turning to `C#CCC(NC(=O)Cc1ccc(C(=O)O)c(OCC)c1)c1ccccc1N1CCCCC1` (centres unmarked) [Y, 2-ethoxy-4-[N-(1-(2-piperidino-phenyl)-3-butyn-1-yl)-aminocarbonylmethyl]benzoic acid], the “Change in glucose content” value (0.5 mg/kg, 4 h) is reported as “n.s”. Further, the change in vivo at 0.5 mg/kg (0.5 mg/kg, 1 h) was -33%; the change in vivo at 0.5 mg/kg (0.5 mg/kg, 2 h) was -18%; the change in vivo at 0.5 mg/kg (0.5 mg/kg, 3 h) is -11%.

As to `CCOc1cc(CC(=O)NC(CC2CCCO2)c2ccccc2N2CCCCC2)ccc1C(=O)O` (stereo not drawn) [V, 2-ethoxy-4-[N-(α-(tetrahydrofuran-2-yl-methyl)-2-piperidino-benzyl)-aminocarbonylmethyl]benzoic acid], the change in vivo at 0.5 mg/kg runs as follows: (0.5 mg/kg, 1 h) -46%; (0.5 mg/kg, 2 h) -25%; (0.5 mg/kg, 3 h) -13%; (0.5 mg/kg, 4 h) -10%.

With `CCCC(NC(=O)Cc1ccc(C(=O)O)c(OCC)c1)c1ccccc1N1CCCCC1` (single isomer, unassigned; (+)) [E, (+)-2-ethoxy-4-[N-{1-(2-piperidino-phenyl)-1-butyl}-aminocarbonylmethyl]-benzoic acid], the change in vivo at 0.5 mg/kg runs as follows: (0.5 mg/kg, 1 h) -40%; (0.5 mg/kg, 2 h) -39%; (0.5 mg/kg, 3 h) -36%; (0.5 mg/kg, 4 h) -36%.

For `CCOc1cc(CC(=O)NC(C(=O)OC)c2ccccc2N2CCCCC2)ccc1C(=O)O` (stereo not drawn) [S, 2-ethoxy-4-[N-(α-methoxycarbonyl-2-piperidino-benzyl)-aminocarbonylmethyl]-benzoic acid], the change in vivo at 1 mg/kg by setting is: (1 mg/kg, 1 h) -42%; (1 mg/kg, 2 h) -35%; (1 mg/kg, 3 h) -28%; (1 mg/kg, 4 h) -18%.

Take `CCCC(NC(=O)Cc1ccc(C(=O)O)c(OCC)c1)c1ccccc1N1CCCC1` (centres unmarked) [G, sodium 2-ethoxy-4-[N-{1-(2-pyrrolidino-phenyl)-1-butyl}-aminocarbonylmethyl]-benzoate]: the change in vivo at 0.5 mg/kg was -40% (0.5 mg/kg, 1 h); -33% (0.5 mg/kg, 2 h); -30% (0.5 mg/kg, 3 h); -17% (0.5 mg/kg, 4 h).

Take `CCOc1cc(CC(=O)NC(CC2CC2)c2ccccc2N2CCCCC2)ccc1C(=O)O` (stereo not drawn) [U, 2-ethoxy-4-[N-(α-cyclopropylmethyl-2-piperidino-benzyl)-aminocarbonylmethyl]benzoic acid]: the change in vivo at 0.5 mg/kg (0.5 mg/kg, 1 h) was -45%; the change in vivo at 0.5 mg/kg (0.5 mg/kg, 2 h) is -45%; the change in vivo at 0.5 mg/kg (0.5 mg/kg, 3 h) is -36%; the change in vivo at 0.5 mg/kg (0.5 mg/kg, 4 h) was -36%.

For `COc1cc(CC(=O)NC(c2ccccc2)c2ccccc2N2CCCCC2)ccc1C(=O)O` (stereo not drawn) [C, 2-methoxy-4-[N-(α-phenyl-2-piperidino-benzyl)-aminocarbonymethyl]-benzoic acid], the change in vivo at 1 mg/kg runs as follows: (1 mg/kg, 1 h) -38%; (1 mg/kg, 2 h) -41%; (1 mg/kg, 3 h) -38%; (1 mg/kg, 4 h) -34%.

As for `CCCC(NC(=O)Cc1ccc(C(=O)O)c(OCC)c1)c1ccccc1N1CCCCC1` (centres unmarked) [B, 2-ethoxy-4-[N-{1-(2-piperidino-phenyl)-1-butyl}-aminocarbonylmethyl]-benzoic acid], the change in vivo at 0.5 mg/kg by setting is: (0.5 mg/kg, 1 h) -43%; (0.5 mg/kg, 2 h) -36%; (0.5 mg/kg, 3 h) -34%; (0.5 mg/kg, 4 h) -35%. In addition, the change in vivo at 1 mg/kg is -38% (1 mg/kg, 1 h); -49% (1 mg/kg, 2 h); -38% (1 mg/kg, 3 h); -33% (1 mg/kg, 4 h).

Take `CCOc1cc(CC(=O)NC(c2ccccc2)c2ccc(C)cc2N2CCCCC2)ccc1C(=O)O` (stereo not drawn) [M, 2-ethoxy-4-[N-(4-methyl-α-phenyl1-2-piperidino-benzyl)-aminocarbonylmethyl]-benzoic acid]: the change in vivo at 1 mg/kg runs as follows: (1 mg/kg, 1 h) -44%; (1 mg/kg, 2 h) -41%; (1 mg/kg, 3 h) -35%; (1 mg/kg, 4 h) -27%.

Turning to `CCCCC(NC(=O)Cc1ccc(C(=O)O)c(OCC)c1)c1ccccc1N1CCCCC1` (centres unmarked) [L, 2-ethoxy-4-[N-{1-(2-piperidino-phenyl)-1-pentyl}-aminocarbonylmethyl]-benzoic acid], the change in vivo at 0.5 mg/kg by setting is: (0.5 mg/kg, 1 h) -42%; (0.5 mg/kg, 2 h) -45%; (0.5 mg/kg, 3 h) -38%; (0.5 mg/kg, 4 h) -39%.

In the case of `C=CCC(NC(=O)Cc1ccc(C(=O)O)c(OCC)c1)c1ccccc1N1CCCCC1` (centres unmarked) [W, 2-ethoxy-4-[N-(1-(2-piperidino-phenyl)-3-buten-1-yl)-aminocarbonylmethyl]benzoic acid], the change in vivo at 0.5 mg/kg is, setting by setting: (0.5 mg/kg, 1 h) -42%; (0.5 mg/kg, 2 h) -39%; (0.5 mg/kg, 3 h) -28%; (0.5 mg/kg, 4 h) -35%.

Consider `CCOC(=O)C(NC(=O)Cc1ccc(C(=O)O)c(OCC)c1)c1ccccc1N1CCCCC1` (stereo not drawn) [R, 2-ethoxy-4-[N-(α-ethoxycarbonyl-2-piperidino-benzyl)-aminocarbonylmethyl]-benzoic acid], for which the “Change in glucose content” value reads like this: (1 mg/kg, 3 h) “n.s”; (1 mg/kg, 4 h) “n.s”. Further, the change in vivo at 1 mg/kg by setting is: (1 mg/kg, 1 h) -33%; (1 mg/kg, 2 h) -17%.

In the case of `CCCOc1cc(CC(=O)NC(CCC)c2ccccc2N2CCCCC2)ccc1C(=O)O` (centres unmarked) [K, 2-n-propoxy-4-[N-{1-(2-piperidino-phenyl)-1-butyl}-aminocarbonylmethyl]-benzoic acid], the “Change in glucose content” value (0.5 mg/kg, 4 h) is “n.s”. The change in vivo at 0.5 mg/kg was -34% (0.5 mg/kg, 1 h); -36% (0.5 mg/kg, 2 h); -24% (0.5 mg/kg, 3 h).

These data come from US6143769A, “Phenylacetic acid benzylamides” (Karl Thomae GmbH, priority 1983, dated 2000).
